The data set is described as follows: in vitro. To be noted: human, hela cells, % viability.

For 57 compounds, viability results are on record in paper PMC12040169 (PLOS Biology, 2025).

The term viability denotes a read-out of living cells in per cent, often relative to untreated cells.

The structures appear in SMILES notation.

With `Cc1ccc(C(=O)N2CCN(S(=O)(=O)c3sc(C(=O)O)c(C)c3C(=O)O)CC2)cc1` [CBK297120], the viability at 28.5 h, 10 µM was 91.1%.
Same read-out and setting: with `Cc1cc(C)n(C2CCN(Cc3nc4ccccc4[nH]3)CC2)n1` [CBK281620] the figure was 103%; with `O=C(CSc1nc2ccccc2o1)N1c2ccccc2Sc2ccc(C(F)(F)F)cc21` [CBK018044], 91.1%; with `COc1cc(NC(=O)Nc2ccccc2OC)c(OC)cc1Cl` [CBK270329], 95.7%.
Still for that read-out and setting: for `N#Cc1ccsc1NC(=O)CN1CCC(CNc2ccccn2)C1` (stereo not drawn) [CBK306117] the value was 105%.
Still for that read-out and setting: with `C=CCn1c(Cc2csc(NC(=O)CCc3nc4ccccc4c(=O)[nH]3)n2)n[nH]c1=S` [CBK297888] the figure was 88.8%; with `CCCCc1cc(=O)oc2cc(OCC(=O)O)ccc12` [CBK264205], 99.4%.
For `CN1CCN(C)C(COc2cccc(C(F)(F)F)n2)C1` (stereo not drawn) [CBK113292], the viability at 28.5 h, 10 µM was found to be 106%.
The same measure, in the same setting: for `O=C(CCc1nc2ccccc2nc1O)OCc1cccc([N+](=O)[O-])c1` [CBK266804] the value was 85%; for `O=C(O)c1cc(NC(=O)C(c2ccccc2)c2ccccc2)cc(C(=O)O)c1` [CBK261191], 93.2%.
On the same count and under the same terms, for `CC(=O)NCCc1nc2ccccc2n1CCOc1ccc(Cl)cc1` [CBK269610] the value was 107%; for `O=C(c1nccs1)C1CCN(C(=O)Cc2ccccc2Cl)CC1` [CBK284162], 87.4%; for `Cc1cc(NC(=O)COc2ccccc2)nc2c1c(=O)oc1ccccc12` [CBK287436], 99.8%.
On the same count and under the same terms, for `COc1cccc(NC(=O)c2cncc(-c3ccc(C(=O)N4CCOCC4)cc3)c2)c1` [CBK160213] the value was 96.2%; for `O=C(O)CCCc1nc(-c2cnc3n(c2=O)CCS3)no1` [CBK008438], 90.1%.
In the case of `Oc1ccc(/N=N/c2cccc(Br)c2)cc1/C=N/c1ccc(-c2nc3ncccc3o2)cc1` [CBK262009], the viability at 28.5 h, 10 µM came to 85.9%.
Same read-out and setting: with `CC1=NN(C(=O)CSCc2ccccc2)C(O)(c2ccc(Cl)cc2)C1` (stereo not drawn) [CBK267136] the figure was 92.7%.
Take `CCCc1csc(C2CN3CCCC3CO2)n1` (stereo not drawn) [CBK304799]: the viability at 28.5 h, 10 µM stood at 88.3%.
`N#Cc1c(Nc2cccc(F)c2)sc2c(O)cc(O)nc12` [CBK270250]: the viability at 28.5 h, 10 µM stood at 100%.
On the same count and under the same terms, with `Cc1nc(SCCC(=O)Nc2ccccc2C#N)nc2cc3c(cc12)CCC3` [CBK268812] the figure was 90.2%; with `COC(=O)N1CCCCC1C(=O)NCCc1nc(C)cc(C(F)(F)F)n1` (stereo not drawn) [CBK306752], 94.2%; with `CC(C)(C)c1ccc(OCC(=O)Nc2ccc(S(=O)(=O)N3CCc4ccccc43)cc2)cc1` [CBK265352], 100%.
Still for that read-out and setting: with `COc1cccc(C(=O)N2CCC(NC(=O)c3cc(F)ccc3F)CC2)c1` [CBK155026] the figure was 99.4%.
On the same count and under the same terms, with `CC(=O)Nc1cccc(NC(=O)CSc2ncnc3c2nnn3C)c1` [CBK287829] the figure was 91.9%.
For the compound `Cc1cc(OCC(=O)Nc2nn(Cc3ccccc3Cl)cc2Cl)ccc1[N+](=O)[O-]` [CBK268113], the viability at 28.5 h, 10 µM is 100%.
On the same count and under the same terms, for `CC(=O)NCc1ccc(C)n1C` [CBK046356] the value was 106%; for `Cc1cc(CC(=O)N2CCN(c3ncccn3)CC2)on1` [CBK144507], 90%; for `N#CCCN(C(=O)NCCCN1CCCC1=O)C1CCCCC1` [CBK156379], 85.5%.
Still for that read-out and setting: for `Cc1ccc(C(=O)N2CN(C(=O)CNCC(C)C)CC2(C)C)cc1` [CBK089576C] the value was 96%; for `COc1ccccc1-c1nccnc1N[C@H](C)c1ccccc1` [CBK038083], 107%; for `CCN(Cc1ccc(C#N)cc1F)C(=O)Nc1cc(C)nn1C` [CBK305730], 94.2%.
On the same count and under the same terms, for `Cc1nn(C)c(Cl)c1S(=O)(=O)NC1(c2ccc(F)cc2)CC1` [CBK282800] the value was 97.5%; for `CC(=O)N1CCN(C(=O)c2cnc(-c3ccc(Cl)cc3)c(-c3ccco3)c2)CC1` [CBK037518], 98.1%; for `CCOC(=O)N1CCC(NC(=O)N(CCc2ccccc2)Cc2ccccc2)CC1` [CBK155359], 107%.
As to `Oc1cccc(-c2cncc(NCCCN3CCOCC3)n2)c1` [CBK037858], the viability at 28.5 h, 10 µM amounted to 89.1%.
The same measure, in the same setting: with `CCCC(=O)c1ccc(S(=O)(=O)N2CCCN(Cc3ccc4cccc(O)c4n3)CC2)cc1` [CBK062901] the figure was 102%; with `CC1(CNC(=O)c2cn3cc(Cl)ccc3n2)COC1` [CBK281748], 91.4%; with `CC(Oc1ccc(Cl)cc1Cl)C(=O)NCCc1cccc(Cl)c1` (stereo not drawn) [CBK265489], 84.2%.
On the same count and under the same terms, for `CCC(C)C(NC(=O)Cc1c[nH]c2ccccc12)C(=O)O` (stereo not drawn) [CBK286720] the value was 91%; for `Cc1ccc(SCc2nc3ncccn3c2Br)cc1` [CBK027744], 85.2%; for `O=C1CC[C@@H](C(=O)N2CCc3nc(-c4ccccc4F)sc3C2)N1` [CBK281891], 82.1%.
Turning to `CC(C)C(=O)Nc1ccc(Oc2ccc(C(=O)O)c(C(=O)O)c2)cc1` [CBK263463], the viability at 28.5 h, 10 µM turned out to be 86.4%.
Turning to `CS(=O)(=O)Nc1ncc(Br)cc1C(=O)Nc1ccc(C(F)(F)F)cc1` [CBK076485], the viability at 28.5 h, 10 µM is 96.7%.
As for `O=C1NC(=S)N(Cc2ccco2)C(=O)/C1=C\c1cn(CCOc2ccc(F)cc2)c2ccccc12` [CBK265573], under “bulk resorufin, single well”, the viability at 28.5 h, 10 µM turned out to be 80.9%.
Consider `O=C(Nc1cccc(O)c1)c1ccc(Br)c(S(=O)(=O)N2CCCCC2)c1` [CBK261736], for which the viability at 28.5 h, 10 µM is 91.9%.
`CC(=O)Nc1ccc(Oc2c(F)c(F)c(/C=C/CN3CCOCC3)c(F)c2F)cc1` [CBK269302C]: the viability at 28.5 h, 10 µM was 89%.
In the case of `Cc1nn(C)cc1-c1cc(C(=O)Nc2ccccc2C2CC2)on1` [CBK281412], the viability at 28.5 h, 10 µM worked out at 95.9%.
Still for that read-out and setting: for `CCc1nc2cccnc2n1CCNC(=O)c1cccs1` [CBK283638] the value was 94.3%; for `O=S(=O)(c1ccc(F)cc1)c1nc(-c2cccs2)oc1N1CCN(Cc2ccccc2)CC1` [CBK267672], 89.7%; for `CCCCc1c(C)nc2ccc(OC)cc2c1SCCC(=O)O` [CBK263888], 98.1%.
On the same count and under the same terms, for `c1ccc(-c2cc3nccc(-c4ccccc4)n3n2)cc1` [CBK287871] the value was 93.7%; for `Cn1nnnc1SCC(=O)Nc1ccc(C(=O)O)cc1` [CBK267442], 87.3%; for `O=C(COc1ccc(Cl)cc1Cl)Nc1ccc2cc[nH]c2c1` [CBK160023], 92.5%.
Still for that read-out and setting: for `COc1ccc(OC)c(-n2c(=O)[nH]c3ccccc3c2=O)c1` [CBK287825] the value was 110%.
`COc1ccccc1-c1nccnc1OCc1ccccc1` [CBK106817]: the viability at 28.5 h, 10 µM was determined as 108%.
For the compound `CN(CC(=O)O/N=C(\N)c1ccc(I)cc1)S(=O)(=O)c1cc(Cl)ccc1Cl` [CBK268389], the viability at 28.5 h, 10 µM was 89.6%.
Consider `CS(=O)(=O)Nc1nccnc1OC1CCN(CCCn2c(=O)[nH]c3ccccc32)CC1` [CBK084277], for which the viability at 28.5 h, 10 µM amounted to 91.8%.
